Earlier results as cited in patent US6596714B1, “Parasiticidal formulation for animals and a method of making this formulation” (Phoenix Scientific, Inc., priority 2000, dated 2003).

Tested on: cestode infestations

CN1CCCN=C1/C=C/c1cccs1 [pyrantel pamoate]
Effectiveness in treating cestode infestations (about three times the label recommended dosage, about 19.8 milligrams per kilogram of animal): about 100%
Average efficacy against cestode infestations (label dosage of about 6.6 milligrams per kilogram of animal, paste formulations, average): about 85%
